Test results: patent publication US20240270737A1, “SMALL MOLECULAR INHIBITORS OF STING SIGNALING COMPOSITIONS AND METHODS OF USE” (STINGINN INC., priority 2021, published 2024)

What was measured:
[1] = test system: IFNβ expression (type I IFNβ promoter driving luciferase); test: IFNβ promoter luciferase assay in hTERT-pIFNβ-Glu cells transfected with ISD; assay type: cell-based, human; conditions: Homo sapiens
Method: Inhibition of IFNβ expression was measured by Luciferase induction at 24 hours after transfection of ISD, DMSO is shown (230), ISD treatment only (220) was used as a control, according to an embodiment of the invention;
Inhibition of IFNβ expression was measured by Luciferase induction at 24 hours after transfection of ISD, Mock is shown (210), ISD treatment only (220) was used as a control, according to an embodiment of the invention;
Identification of small molecule inhibitors of STING. In the presence of cytosolic DNA species, STING becomes activated to drive the transcription of cytokines such as type I IFN. Compounds binding to STING via TSA were subsequently examined for their ability to prevent cytosolic DNA species from activating the type I interferon (IFN) promoter, using a live cell assay. This assay comprised immortalized human fibroblasts (hTERT) that were stably transfected with the type I IFN promoter driving luciferase as well as the CMV promoter driving SEAP (hTERT-pIFNβ-Glu). The live cell assay has previously been disclosed in PCT/US2019/025380 entitled IFN-Beta Reporter System for Immortalized Primary Cells inventor Glen N. Barber, which was filed Apr. 2, 2018 and published as WO2019195285, and which is herein incorporated by reference in its entirety and for all purposes. The ability of the small molecules to prevent activation of the type I IFN promoter and the transcription of luciferase, but not SEAP in response to cytosolic DNA species was assessed. The activation of STING, typically by CDNs, in turn activates the transcription factors NF-κB and IRF3, both of which are required to induce the transcriptional stimulation of the Type I IFN promoter, but not the CMV promoter as IRF3 and NF-kB transcription factor binding sites are not contained in the CMV promoter. The assay identified the small molecule Compound W1 in the first screen (HTS), where the level of luciferase was not able to activate the type I IFN promoter or induce the expression of luciferase (see Table I and Table II).
Inhibition of IFNβ expression was measured by Luciferase induction at 24 hours after transfection of ISD. ISD only treatment was used as control.
Inhibition of IFNβ expression was measured by Luciferase induction at 24 hours after transfection of ISD, Mock is shown (210), ISD treatment only (220) was used as a control.
Luciferase assay: hTERT-BJ1 Telomerase Fibroblasts stably expressing the luciferase gene under the control of the interferon-beta promoter and SEAP gene under control of the CMV promoter) (hTERT-pIFNβ-Glu) were generated by the Barber laboratory. Luciferase assay was performed using Secrete-Pair Dual Luminescence Assay Kit from GeneCopoeia following the manufacturer's protocol.

pIRF3, pSTING = test: Western blot of pIRF3, pSTING, pTBK1 after ISD transfection in hTERT cells; assay type: cell-based, human; conditions: Homo sapiens
Method: FIG. 1C are photographs showing Western blot analysis of STING, phospho-TBK1 (pTBK1) and phospho-IRF3 (pIRF3) performed at 6 hours after ISD transfection with/without W1 treatment same as FIG. 1A, Mock is shown (210), ISD treatment only (220) was used as a control, according to an embodiment of the invention;
Immunoblot analysis: Equal amounts of proteins were resolved on sodium dodecyl sulfate (SDS)-Polyacrylamide gels and then transferred to polyvinylidene fluoride (PVDF) membranes (Millipore). After blocking with 5% Blocking Reagent, membranes were incubated with various primary antibodies (and appropriate secondary antibodies). The image was resolved using an enhanced chemiluminescence system ECL (Thermo Scientific) and detected by autoradiography (Kodak). Antibodies: rabbit polyclonal antibody against STING was developed in our laboratory as described previously in Ishikawa et al, 2008; other antibodies were obtained from following sources: β-actin (Sigma Aldrich), p-IRF3 (Cell Signaling), IRF3 (Santa Cruz Biotechnology), p-p65 (Cell Signaling), p65 (Cell Signaling), p-TBK1 (Cell Signaling), TBK1 (Abcam), cGAS (Cell Signaling).

Compound | inhibition at 5 µM [1] | inhibition at 10 µM (pIRF3, pSTING)
COc1ccc(-c2nc(CN3CCN(c4cc(C)nc(C(C)C)n4)CC3)cs2)cc1OC [Compound W2] | -4% | –
COc1ccc(-c2nc(CN3CCN(c4nc(C)nc(N(C)C)n4)CC3)cs2)cc1OC [Compound W4, 4-(4-{[2-(3,4-dimethoxyphenyl)-1,3-thiazol-4-yl]methyl}piperazin-1-yl)-N,N,6-trimethyl-1,3,5-triazin-2-amine] | 4% | < 10%
COc1ccc(-c2nc(CN3CCN(c4nc(C)cc(C(C)C)n4)CC3)cs2)cc1OC [Compound W5, 2-(4-{[2-(3,4-dimethoxyphenyl)-1,3-thiazol-4-yl]methyl}piperazin-1-yl)-4-methyl-6-(propan-2-yl)pyrimidine] | 18% | < 10%
Cc1cc(N2CCN(Cc3csc(-c4ccccc4)n3)CC2)nc(N(C)C)n1 [Compound W6, N,N,4-trimethyl-6-{4-[(2-phenyl-1,3-thiazol-4-yl)methyl]piperazin-1-yl}pyrimidin-2-amine] | -34% | –
COc1ccc(-c2nc(CN3CCN(c4cc(C)nc(N(C)C)n4)CC3)cs2)cc1 [Compound W7, 4-(4-{[2-(4-methoxyphenyl)-1,3-thiazol-4-yl]methyl}piperazin-1-yl)-N,N,6-trimethylpyrimidin-2-amine] | -11% | –
COc1cccc(-c2nc(CN3CCN(c4cc(C)nc(N(C)C)n4)CC3)cs2)c1 [Compound W8, 4-(4-{[2-(3-methoxyphenyl)-1,3-thiazol-4-yl]methyl}piperazin-1-yl)-N,N,6-trimethylpyrimidin-2-amine] | -59% | –
Cc1cc(N2CCN(Cc3csc(-c4ccc5c(c4)OCO5)n3)CC2)nc(N(C)C)n1 [Compound W9, 4-(4-{[2-(2H-1,3-benzodioxol-5-yl)-1,3-thiazol-4-yl]methyl}piperazin-1-yl)-N,N,6-trimethylpyrimidin-2-amine] | -40% | –
Cc1cc(N2CCN(Cc3csc(-c4ccc(C#N)cc4)n3)CC2)nc(N(C)C)n1 [Compound W10, 4-[4-({4-[2-(dimethylamino)-6-methylpyrimidin-4-yl]piperazin-1-yl}methyl)-1,3-thiazol-2-yl]benzonitrile] | -62% | –
Cc1cc(N2CCN(Cc3csc(-c4ccc(S(C)(=O)=O)cc4)n3)CC2)nc(N(C)C)n1 [Compound W12, 4-(4-{[2-(4-methanesulfonylphenyl)-1,3-thiazol-4-yl]methyl}piperazin-1-yl)-N,N,6-trimethylpyrimidin-2-amine] | -40% | –
Cc1cc(N2CCN(Cc3noc(-c4ccccc4)n3)CC2)nc(N(C)C)n1 [Compound W16, N,N,4-trimethyl-6-{4-[(5-phenyl-1,2,4-oxadiazol-3-yl)methyl]piperazin-1-yl}pyrimidin-2-amine] | 26% | –
Cc1cc(N2CCN(Cc3cnc(-c4ccccc4)o3)CC2)nc(N(C)C)n1 [Compound W17, N,N,4-trimethyl-6-{4-[(2-phenyl-1,3-oxazol-5-yl)methyl]piperazin-1-yl}pyrimidin-2-amine] | 2% | –
Cc1cc(N2CCN(Cc3coc(-c4ccccc4)n3)CC2)nc(N(C)C)n1 [Compound W18, N,N,4-trimethyl-6-{4-[(2-phenyl-1,3-oxazol-4-yl)methyl]piperazin-1-yl}pyrimidin-2-amine] | -82% | –
CCN(C)c1nc(C)cc(N2CCN(Cc3csc(-c4ccc(OC)c(OC)c4)n3)CC2)n1 [Compound W21, 4-(4-{[2-(3,4-dimethoxyphenyl)-1,3-thiazol-4-yl]methyl}piperazin-1-yl)-N-ethyl-N,6-dimethylpyrimidin-2-amine] | -84% | –
CCN(CC)c1nc(C)cc(N2CCN(Cc3csc(-c4ccc(OC)c(OC)c4)n3)CC2)n1 [Compound W22, 4-(4-{[2-(3,4-dimethoxyphenyl)-1,3-thiazol-4-yl]methyl}piperazin-1-yl)-N,N-diethyl-6-methylpyrimidin-2-amine] | 28% | –
CNc1nc(C)cc(N2CCN(Cc3csc(-c4ccc(OC)c(OC)c4)n3)CC2)n1 [Compound W23, 4-(4-{[2-(3,4-dimethoxyphenyl)-1,3-thiazol-4-yl]methyl}piperazin-1-yl)-N,6-dimethylpyrimidin-2-amine] | -33% | –
COc1ccc(-c2nc(CN3CCN(c4cc(C)nc(N5CCCC5)n4)CC3)cs2)cc1OC [Compound W24, 4-(4-{[2-(3,4-dimethoxyphenyl)-1,3-thiazol-4-yl]methyl}piperazin-1-yl)-6-methyl-2-(pyrrolidin-1-yl)pyrimidine] | -26% | –
CCc1cc(N2CCN(Cc3csc(-c4ccc(OC)c(OC)c4)n3)CC2)nc(N(C)C)n1 [Compound W25, 4-(4-{[2-(3,4-dimethoxyphenyl)-1,3-thiazol-4-yl]methyl}piperazin-1-yl)-6-ethyl-N,N-dimethylpyrimidin-2-amine] | -126% | –
COc1ccc(-c2nc(CN3CCN(c4cc(C(C)C)nc(N(C)C)n4)CC3)cs2)cc1OC [Compound W26, 4-(4-{[2-(3,4-dimethoxyphenyl)-1,3-thiazol-4-yl]methyl}piperazin-1-yl)-N,N-dimethyl-6-(propan-2-yl)pyrimidin-2-amine] | -120% | –
COc1cc(N2CCN(Cc3csc(-c4ccc(OC)c(OC)c4)n3)CC2)nc(N(C)C)n1 [Compound W27, 4-(4-{[2-(3,4-dimethoxyphenyl)-1,3-thiazol-4-yl]methyl}piperazin-1-yl)-6-methoxy-N,N-dimethylpyrimidin-2-amine] | -64% | –
COc1ccc(-c2nc(CN3CCN(c4cc(C(F)(F)F)nc(N(C)C)n4)CC3)cs2)cc1OC [Compound W28, 4-(4-{[2-(3,4-dimethoxyphenyl)-1,3-thiazol-4-yl]methyl}piperazin-1-yl)-N,N-dimethyl-6-(trifluoromethyl)pyrimidin-2-amine] | -89% | –
Cc1cc(N2CCN(Cc3csc(-c4ccc(C(C)C)cc4)n3)CC2)nc(N(C)C)n1 [Compound W29, N.N.4-trimethyl-6-[4-({2-[4-(propan-2-yl)phenyl]-1.3-thiazol-4-yl}methyl)piperazin-1-yl]pyrimidin-2-amine] | 50% | –
Cc1cc(N2CCN(Cc3csc(-c4ccc(C5CC5)cc4)n3)CC2)nc(N(C)C)n1 [Compound W30, 4-(4-{[2-(4-cyclopropylphenyl)-1.3-thiazol-4-yl]methyl}piperazin-1-yl)-N.N.6-trimethylpyrimidin-2-amine] | 50% | –
COc1cc(C(F)(F)F)ccc1-c1nc(CN2CCN(c3cc(C)nc(N(C)C)n3)CC2)cs1 [Compound W31, 4-[4-({2-[2-methoxy-4-(trifluoromethyl)phenyl]-1.3-thiazol-4-yl}methyl)piperazin-1-yl]-N.N.6-trimethylpyrimidin-2-amine] | 60% | –
Cc1cc(N2CCN(Cc3csc(-c4ccc(C(C)(F)F)cc4)n3)CC2)nc(N(C)C)n1 [Compound W32, 4-[4-({2-[4-(1.1-difluoroethyl)phenyl]-1.3-thiazol-4-yl}methyl)piperazin-1-yl]-N.N.6-trimethylpyrimidin-2-amine] | 70% | –
Cc1cc(N2CCN(Cc3csc(-c4ccc(CC(F)(F)F)cc4)n3)CC2)nc(N(C)C)n1 [Compound W33, N.N.4-trimethyl-6-[4-({2-[4-(2.2.2-trifluoroethyl)phenyl]-1.3-thiazol-4-yl}methyl)piperazin-1-yl]pyrimidin-2-amine] | 65% | –
Cc1cc(N2CCN(Cc3csc(-c4ccc(C(F)(F)Cl)cc4)n3)CC2)nc(N(C)C)n1 [Compound W34, 4-[4-({2-[4-(chlorodifluoromethyl)phenyl]-1.3-thiazol-4-yl}methyl)piperazin-1-yl]-N.N.6-trimethylpyrimidin-2-amine] | 50% | –
Cc1cc(N2CCN(Cc3csc(-c4ccc5c(c4)OCC5)n3)CC2)nc(N(C)C)n1 [Compound W35] | 0% | –
